Assay results as given in patent US20240284907A1, “NOVEL DERIVATIVES OF NON-CODED AMINO ACIDS AND THEIR USE AS HERBICIDES” (FortePhest LTD., priority 2021, published 2024).

Tested on: Seeds of Lettuce R. (Super-Jericho)
Test: Filter paper bioassay with lettuce seeds: germination and early plant development, Minimal Effective Concentration (MEC)
Assay type: in vivo
Settings: lettuce seeds on filter paper, 0 to 1 mmol/l, visually assessed after 6 days
From the text: Materials: Seeds of Lettuce R. (Super-Jericho, non-sterilized) were obtained from Ben Shahar Moshe Ltd., 99% purity. The test compounds listed in the Table 2 below were synthetized de novo or purchased from different vendors.
Filter Paper Bioassays with Lettuce seeds: The protocol is following Bertin et al. 2009 and Movellan et al. 2014 with specified modifications as described below.
Seeds were placed on Whatman no. 1 filter paper (Whatman, Middlesex, U.K.) in Petri dishes (10 seeds per plate) with 2.0 ml of aqueous solution of a test material in concentration ranged from 0 (control) to 1 mmol/l were placed in a tray tilted at 45[…]. The trays were kept in dark for 48 hours and then transferred to the growth chamber with 6/18 dark/light cycle for 4 days. Each experiment was performed at least with two repeats.
The development of plants' radicle and shoots were visually assessed 6 days after the beginning of the test to determine Minimal Effective Concentration (MEC) of a test material. In the context of the invention, MEC is defined as the lowest concentration level of a test material that caused deviation (absence of germination or malformation of radicle or shoots) from the plant's development in the Control group.

Compound	Score (activity score of Minimal Effective Concentration, MEC)
O=C(O)C1Cc2nnsc2S1 (stereo not shown) [compound 5750, 5H,6H-thieno[3,2-d][1,2,3]thiadiazole-5-carboxylic acid]	Moderate (0.1 mM)
O=C(O)C(F)(F)c1csc(-c2ccc(C(F)(F)F)cc2F)n1 [compound 5763, 2,2-difluoro-2-{2-[2-fluoro-4-(trifluoromethyl)phenyl]-1,3-thiazol-4-yl}acetic acid]	Moderate (0.1 mM)
O=C(O)C(F)(F)c1cscc1C(F)(F)F [compound 5764, difluoro[4-(trifluoromethyl)thiophen-3-yl]acetic acid]	Strong (0.01 mM)
NC(N)=NCCCc1cc(Cl)sc1Cl [compound 5765, N″-[3-(2,5-dichlorothiophen-3-yl)propyl]guanidine]	Strong (0.01 mM)
N=C(NCCc1cc(Cl)sc1Cl)Nc1ccc(O)cc1 [compound 5766, N-[2-(2,5-dichlorothiophen-3-yl)ethyl]-N′-(4-hydroxyphenyl)guanidine]	Moderate (0.1 mM)
O=C([O-])Cc1cnsn1.[Li+] [compound 5776, lithium(1+) 2-(1,2,5-thiadiazol-3-yl)acetate[Li+]]	Moderate (0.1 mM)
Cc1nsnc1CC(=O)O [compound 5785, (4-methyl-1,2,5-thiadiazol-3-yl)acetic acid]	Moderate (0.1 mM)
CCOC(=O)Cc1csc(Cl)c1 [compound 5796, ethyl(5-chlorothiophen-3-yl)acetate]	Moderate (0.1 mM)
O=C(O)C(F)(F)c1nnn[nH]1 [compound 5799, difluoro(1H-tetrazol-5-yl)acetic acid]	Moderate (0.1 mM)
O=C(Cc1csc(Cl)n1)OCC(=O)c1cccc(Br)n1 [compound 5801, 2-(6-bromopyridin-2-yl)-2-oxoethyl 2-(2-chloro-1,3-thiazol-4-yl)acetate]	Moderate (0.1 mM)
NC(=O)Nc1ccnc(Br)c1 [compound 6602, (2-bromopyridin-4-yl)urea]	Weak (Higher than 0.1 mM)
O=C(O)/C=C/c1cccc(Cl)n1 [compound 6603, (2E)-3-(6-chloropyridin-2-yl)prop-2-enoic acid]	Weak (Higher than 0.1 mM)
O=C(O)/C=C/c1cccnc1Cl [compound 6604, (2E)-3-(2-chloropyridin-3-yl)prop-2-enoic acid]	Moderate (0.1 mM)
O=C(O)/C=C/c1cccnc1Br [compound 6605, (2E)-3-(2-bromopyridin-3-yl)prop-2-enoic acid]	Strong (0.01 mM)
O=C(O)/C=C/c1ccnc(Br)c1 [compound 6606, (2E)-3-(2-bromopyridin-4-yl)prop-2-enoic acid]	Weak (Higher than 0.1 mM)
O=C(Nc1ccnc(Br)c1)c1ccnc(Br)c1 [compound 6607, 2-bromo-N-(2-bromopyridin-4-yl)pyridine-4-carboxamide]	Strong (0.01 mM)
O=C(O)C(=O)c1ccc(Br)nc1 [compound 6609, 2-(6-bromopyridin-3-yl)-2-oxoacetic acid]	Weak (Higher than 0.1 mM)
O=C(O)C(=O)Cc1ccnc(Br)c1 [compound 6611, 3-(2-bromopyridin-4-yl)-2-oxopropanoic acid]	Weak (Higher than 0.1 mM)
O=C(O)C(F)(F)c1ccncc1 [compound 6614, 2,2-difluoro-2-(pyridin-4-yl)acetic acid]	Weak (Higher than 0.1 mM)
O=C(O)Cc1ccc(Oc2ccncc2)cc1 [compound 6615, 2-[4-(pyridin-4-yloxy)phenyl]acetic acid]	Weak (Higher than 0.1 mM)
NC(=O)CC(N)c1ccnc(Br)c1 (stereo not shown) [compound 6616, 3-amino-3-(2-bromopyridin-4-yl)propanamide]	Weak (Higher than 0.1 mM)
O=C(NCC(F)(F)C(=O)O)c1ccnc(Br)c1 [compound 6618, 3-[(2-bromopyridin-4-yl)formamido]-2,2-difluoropropanoic acid]	Strong (0.01 mM)
O=C(O)C(F)(F)c1ncccn1 [compound 6619, 2,2-difluoro-2-(pyrimidin-2-yl)acetic acid]	Weak (Higher than 0.1 mM)
O=C(O)c1ccc2ccnc(Cl)c2c1 [compound 6627, 1-chloroisoquinoline-7-carboxylic acid]	Moderate (0.1 mM)
O=C(O)/C=C/c1ccnc(Br)c1[N+](=O)[O-] [compound 6631, (2E)-3-(2-bromo-3-nitropyridin-4-yl)prop-2-enoic acid]	Moderate (0.1 mM)

Compound	Score (activity score of Minimal Effective Concentration, MEC)
Cl.N=C(N)c1cccc(Br)n1 [compound 6634, 6-bromopyridine-2-carboximidamide hydrochloride[HCl]]	Weak (Higher than 0.1 mM)
N=C(N)NCc1cccc(Br)n1 [compound 6636, N-[(6-bromopyridin-2-yl)methyl]guanidine]	Moderate (0.1 mM)
NCCCc1ccnc(Br)c1 [compound 6649, 3-(2-bromopyridin-4-yl)propan-1-amine]	Moderate (0.1 mM)
O=C(O)C(F)(F)c1cccc(-c2ccc(C(F)(F)F)cc2F)n1 [compound 6659, 2,2-difluoro-2-{6-[2-fluoro-4-(trifluoromethyl)phenyl]pyridin-2-yl}acetic acid]	Moderate (0.1 mM)
O=C(O)C(F)(F)c1nc(F)c(F)cc1F [compound 6660, difluoro(3,5,6-trifluoropyridin-2-yl)acetic acid]	Moderate (0.1 mM)
O=C(O)C(F)c1nc(F)c(F)cc1F (stereo not shown) [compound 6661, 2-fluoro-2-(3,5,6-trifluoropyridin-2-yl)acetic acid]	Moderate (0.1 mM)
NC(Cc1cccc(Br)c1)C(=O)O (stereo not shown) [compound 6669, 2-amino-3-(3-bromophenyl)propanoic acid]	Moderate (0.1 mM)
O=C(O)C(F)(F)c1ccc(F)c(Br)n1 [compound 6681, (6-bromo-5-fluoropyridin-2-yl)(difluoro)acetic acid]	very strong
O=C(O)C(F)(F)c1ccc(C(F)(F)F)c(Br)n1 [compound 6682, [6-bromo-5-(trifluoromethyl)pyridin-2-yl](difluoro)acetic acid]	Strong (0.01 mM)
(2,6-dibromopyridin-4-yl)-2,2-difluoroacetic acid [compound 6632]	Weak (Higher than 0.1 mM)
(2-bromopyridin-4-yl)(oxo)acetic acid [compound 6626]	Moderate (0.1 mM)
(2E)-3-(2-bromo-strong-nitropyridin-4-yl)prop-2-enoic acid [compound 6608]	Moderate (0.1 mM)
(2E)-3-(3-chloro-1H-1,2,4-triazol-5-yl)prop-2-enoic acid [compound 5621]	Weak (Higher than 0.1 mM)
(2E)-3-(5-chlorothiophen-2-yl)prop-2-enoic acid [compound 5607]	Moderate (0.1 mM)
(6-bromopyridin-2-yl)methyl 2-(2-chlorothiophen-3-yl)acetate [compound 5802]	Moderate (0.1 mM)
N-(6-bromopyridin-2-yl)guanidine hydrochloride [compound 6637]	Weak (Higher than 0.1 mM)
N-[2-(2,5-dichlorothiophen-3-yl)ethyl]-N′-(2-hydroxypropyl)guanidine [compound 5727]	Moderate (0.1 mM)
N-{2-[3-(2,5-dichlorothiophen-3-yl)propoxy]phenyl}guanidine [compound 5732]	Moderate (0.1 mM)
N′-[2-(2,5-dichlorothiophen-3-yl)ethyl]-N-(3-hydroxypropyl)guanidine [compound 5725]	Moderate (0.1 mM)
[2,5-bis(trifluoromethyl)-1,3-thiazol-4-yl](difluoro)acetic acid [compound 5744]	Moderate (0.1 mM)
[2-(2,5-dichlorothiophen-3-yl)ethyl]hydrazine [compound 5705]	Moderate (0.1 mM)
[3-(2-bromo-1,3-thiazol-4-yl)propyl]phosphonic acid [compound 5774]	Weak (Higher than 0.1 mM)
[(2,5-dichlorothiophen-3-yl)methyl]hydrazine [compound 5610]	Weak (Higher than 0.1 mM)
[(2-bromo-1,3-thiazol-4-yl)(difluoro)methyl]phosphonic acid [compound 5737]	Weak (Higher than 0.1 mM)
